Earlier results on 3 compounds are cited in paper PMC3544362 (Journal of medicinal chemistry, 2012).

The conditions of data set [1]: rat, 60 min p.i., ref [32].
For data set [2] the following is noted: presumably rapid in vivo hydrolysis, ref [31]–[32].
For data set [3] the following is noted: Sprague-Dawley rats, 5 min p.i.; ref [12].
[4] abbreviates: Wistar rats, 60 min p.i., ref [16].

SMILES strings stand for the structures. Where two headings read alike, the source gives them in different places.

For the compound `CC(C)(C)n1ncc(OCc2ccc(COCC[18F])cc2)c(Cl)c1=O` [Flurpiridaz F 18], the heart uptake (Sprague-Dawley rats, 60 min p.i., ref [17], [46]) was 3.3 %ID/g and the heart uptake under setting [4] is recorded as 2.06 %ID/g. In addition, the liver concentration is 0.99 %ID/g (Wistar rats, 10 min p.i., ref [16]) and 0.38 %ID/g under setting [4].

On to `CCN(CC)c1ccc2c(-c3ccccc3C(=O)OCC[18F])c3ccc(=[N+](CC)CC)cc-3oc2c1` [[^18F]3, 2-[^18F]fluoroethyl rhodamine B], for which the Heart/blood in data set [1] (tissue ratio) is listed as 25.8. For the same compound, in data set [1], the Blood is 0.08 ± 0.03 %ID/g, the Bone was 0.45 ± 0.08 %ID/g, the Gut is 2.40 ± 0.53 %ID/g and the Heart is 2.06 ± 0.61 %ID/g. Besides, in data set [1], the Kidney is 8.31 ± 0.81 %ID/g, the Liver is 0.89 ± 0.07 %ID/g, the Lung was 1.78 ± 0.65 %ID/g and the Muscle is 0.16 ± 0.04 %ID/g. Also, in data set [1], the Skin is on record as 0.20 ± 0.02 %ID/g and the Spleen is listed as 5.63 ± 0.78 %ID/g. The “accumulation in mouse myocardium” value in data set [2] is listed as “did not accumulate in mouse myocardium”.

`Fc1ccc([P+](c2ccccc2)(c2ccccc2)c2ccccc2)cc1` [^18F-FTPP]: in data set [3], the heart uptake is given as 1.64 %ID/g and the heart-to-blood ratio is 11.
